According to PMC3366831 (The Journal of Biological Chemistry, 2012):

What was measured:
PAPSS2 = target: T1, PAPSS2 (Homo sapiens, UniProt O95340); experiment: thermal unfolding by CD at […] nm; assay type: binding; settings: about 0.5 μM protein, pH 7.3, 1 mM MgCl2, 25 °C/h
T1 sequence (O95340 1-614): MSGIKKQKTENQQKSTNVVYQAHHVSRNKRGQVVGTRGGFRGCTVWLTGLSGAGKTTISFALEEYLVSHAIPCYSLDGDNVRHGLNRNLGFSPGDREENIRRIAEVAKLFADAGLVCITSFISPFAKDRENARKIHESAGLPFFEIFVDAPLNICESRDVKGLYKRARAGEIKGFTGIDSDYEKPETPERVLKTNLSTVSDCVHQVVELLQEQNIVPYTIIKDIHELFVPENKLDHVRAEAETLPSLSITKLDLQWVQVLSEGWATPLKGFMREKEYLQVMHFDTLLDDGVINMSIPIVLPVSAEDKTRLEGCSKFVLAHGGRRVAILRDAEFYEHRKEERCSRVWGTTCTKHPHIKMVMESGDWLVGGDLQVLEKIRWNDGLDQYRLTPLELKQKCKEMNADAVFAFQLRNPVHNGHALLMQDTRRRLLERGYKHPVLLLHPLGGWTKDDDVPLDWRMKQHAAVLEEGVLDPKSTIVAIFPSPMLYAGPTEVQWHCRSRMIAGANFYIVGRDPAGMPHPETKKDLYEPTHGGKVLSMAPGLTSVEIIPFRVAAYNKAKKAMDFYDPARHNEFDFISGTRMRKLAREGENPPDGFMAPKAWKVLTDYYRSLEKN

PAPSS1 = target: T2, PAPSS1 (Homo sapiens, UniProt O43252); experiment: thermal unfolding by CD at […] nm; assay type: binding; settings: about 0.5 μM protein, pH 7.3, 1 mM MgCl2, 25 °C/h
T2 sequence (O43252 1-624): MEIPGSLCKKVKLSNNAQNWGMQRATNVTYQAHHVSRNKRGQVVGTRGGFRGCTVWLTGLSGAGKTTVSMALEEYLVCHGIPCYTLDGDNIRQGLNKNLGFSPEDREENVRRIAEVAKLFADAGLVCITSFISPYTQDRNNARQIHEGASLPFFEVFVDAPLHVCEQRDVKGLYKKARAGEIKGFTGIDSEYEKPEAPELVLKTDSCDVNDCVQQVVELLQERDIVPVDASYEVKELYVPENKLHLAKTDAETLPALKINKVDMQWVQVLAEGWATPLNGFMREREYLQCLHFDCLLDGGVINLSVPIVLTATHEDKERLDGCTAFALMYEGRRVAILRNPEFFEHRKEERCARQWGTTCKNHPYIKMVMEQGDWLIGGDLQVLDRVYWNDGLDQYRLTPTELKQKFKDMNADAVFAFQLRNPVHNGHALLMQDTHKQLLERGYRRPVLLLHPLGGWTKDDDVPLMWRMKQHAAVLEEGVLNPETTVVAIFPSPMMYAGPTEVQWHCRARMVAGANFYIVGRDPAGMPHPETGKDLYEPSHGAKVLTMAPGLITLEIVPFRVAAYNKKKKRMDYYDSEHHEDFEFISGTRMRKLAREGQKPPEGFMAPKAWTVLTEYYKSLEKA

**Q.** How did the “thermal unfolding by CD at 225 nm” value (PAPSS2; 100 μM ADP) turn out when Nc1ncnc2c1ncn2[C@@H]1O[C@H](COP(=O)(O)OP(=O)(O)O)[C@@H](O)[C@H]1O [ADP] was run?
**A.** moderate effects on PAPSS1 and -S2 stability were observed for ADP and PAPS

**Q.** And the “thermal unfolding by CD at 225 nm” value (PAPSS1; 100 μM ADP)?
**A.** moderate effects on PAPSS1 and -S2 stability were observed for ADP and PAPS

**Q.** Nc1ncnc2c1ncn2[C@@H]1O[C@H](COP(=O)(O)OS(=O)(=O)O)[C@@H](OP(=O)(O)O)[C@H]1O [PAPS] was tested. Which “thermal unfolding by CD at 225 nm” value (PAPSS2; 50 μM PAPS) did it give?
**A.** moderate effects on PAPSS1 and -S2 stability were observed for ADP and PAPS

**Q.** What about the “thermal unfolding by CD at 225 nm” value (PAPSS1; 50 μM PAPS) of the same compound?
**A.** moderate effects on PAPSS1 and -S2 stability were observed for ADP and PAPS

**Q.** How did the “thermal unfolding by CD at 225 nm” value (PAPSS2; 100 μM ATP) turn out when Nc1ncnc2c1ncn2[C@@H]1O[C@H](COP(=O)(O)OP(=O)(O)OP(=O)(O)O)[C@@H](O)[C@H]1O [ATP] was run?
**A.** ATP had a slight stabilizing effect on PAPSS2
